Measurements: patent US5965598A, “Zinc-phthalocyanines and corresponding conjugates, their preparation and use in photodynamic therapy and as diagnostic agents” (priority 1997, dated 1999)

Key:
[1] = system: Staphylococcus aureus (ATCC 6538P); test: Photoinactivation of microorganisms: Staphylococcus aureus; format: cell-based; conditions: 1 μM; 15 mW/cm2, 30 min
Protocol: (§1) The experimental protocol was the following:
(§2) Incubation in dark at 37° C. (5 min to 1 hour).

E. Coli (strain 04) = test: Photoinactivation of microorganisms: E. coli; format: cell-based, Escherichia coli (strain 04); conditions: footnote below the P. aeruginosa / E. coli table
Protocol: as §1, §2

Branhamella catarrhalis = test: Photoinactivation of microorganisms: Branhamella catarrhalis; format: cell-based; conditions: footnote
Protocol: as §1, §2

[Zn+2].c1ccc2c(c1)-c1nc-2nc2[n-]c(nc3nc([n-]c4nc(n1)-c1ccccc1-4)-c1ccccc1-3)c1ccccc21 [ZnPC, ZnPhthalocyanine]
Cell mortality [1]: 99.99
Photoinactivation activity (in words) (E. Coli (strain 04)): not active
Photoinactivation activity (in words) (Branhamella catarrhalis): not active
